Data as given in US11690887B2, “Composition for ameliorating psoriasis symptoms containing extract of Dianthus superbus L” (KOREA INSTITUTE OF SCIENCE AND TECHNOLOGY, priority 2020, dated 2023).

What was measured:
[1] = test system: psoriasis caused by imiquimod; assay: Epithelial thickness of back skin by H&E staining in imiquimod-induced psoriasis mice; format: in vivo, Balb/c mice; settings: after treatment for a week, skin application, compared to the IMQ group
From the text: (§1) 6-week-old male Balb/c mice (Kangwon Life Science, Korea) were purchased and acclimated for a week, and psoriasis was induced using 5% imiquimod (Donga ST, Korea). FIG. 1 is a schematic experimental scheme of an animal model. Anti-psoriatic efficacy was investigated using a total of 20 animal models including 5 animals per experimental group.
(§2) In order to determine the effect of the extract of Dianthus superbus L. on psoriasis caused by imiquimod, the experimental animals of Section 2-1 were used. The following four experimental groups were constructed and five animals were randomly assigned to each group:
(§3) The experiment was conducted by inducing psoriasis with IMQ cream and then performing daily application in the amount shown in FIG. 2 to the experimental group and the DEX group. FIG. 3 is an image showing the treatment group for 7 days compared to the psoriasis-induced model as the animal experimental model.
After treatment for a week, the back skin tissue was removed from each animal, and then a paraffin block was prepared. The paraffin block was cut to 5 μm to prepare a slide sample, and then the change in the thickness of the skin tissue was measured through H&E staining.

[2] = test system: filaggrin, loricrin, keratin 1 and keratin 14; assay: Biomarkers for epithelial tissue damage in back skin by immunofluorescence in imiquimod-induced psoriasis mice; format: in vivo, Balb/c mice; settings: after treatment for a week, versus IMQ group
From the text: as §1, §2, §3
After treatment for a week, back skin tissue was removed from each animal and a paraffin block was then prepared. A paraffin block was cut to 5 μm to prepare a slide sample, and then the change in biomarkers for epithelial tissue damage due to psoriasis was measured through immunofluorescence.

In the case of C[C@@H]1C[C@H]2[C@@H]3CCC4=CC(=O)C=C[C@]4(C)[C@@]3(F)[C@@H](O)C[C@]2(C)[C@@]1(O)C(=O)CO [DEX, dexamethasone], the “thickness of the epithelial layer” value [1] is reported as “decreased thickness”, the “expression level of filaggrin” value [2] is reported as “increased” and the “expression level of keratin 1” value [2] is reported as “increased”. The “expression level of keratin 14” value [2] was “increased” and the “expression level of loricrin” value [2] was “increased”.
